Values quoted from earlier work as cited in patent US20250312497A1, “METHOD OF TREATING PROSTATE CANCER” (Novartis AG, priority 2022, published 2025).

How the values were obtained:
[1] = tested on: docetaxel progressing metastatic castration-resistant prostate cancer; conditions: randomized, 200 patients; P<0.0001; cited from earlier work
[2] = tested on: mCRPC; conditions: control arm; prior docetaxel and abiraterone acetate and/or enzalutamide; cited from earlier work

Compound	proportion of patients with PSA decline >=50% [1]	median overall survival [2]
CO[C@H]1C(=O)[C@]2(C)[C@@H](OC)C[C@H]3OC[C@@]3(OC(C)=O)[C@H]2[C@H](OC(=O)c2ccccc2)[C@]2(O)C[C@H](OC(=O)[C@H](O)[C@@H](NC(=O)OC(C)(C)C)c3ccccc3)C(C)=C1C2(C)C [cabazitaxel]	37%	–
C[C@]12C=CC(=O)C=C1CC[C@@H]1[C@@H]2C(=O)C[C@@]2(C)[C@H]1CC[C@]2(O)C(=O)CO [prednisone]	–	9.8 months
